Assays:
c-myc = assay: Inhibition of c-myc expression in cancer cell lines (mRNA, real-time PCR); assay type: cell-based; design: key: Active: Compounds with an IC50 value less than 30 μM were deemed to be active; conditions: Human AML MV4-11 cells, 3 hours
Procedure, shortened: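 MV4-11 cells (2.5×10^4) exposed to compound or 0.1% DMSO for 3 h at 37° C, then lysed for mRNA isolation. c-myc and cyclophilin cDNAs co-amplified by duplex RT real-time PCR. IC50 from dose-response curve.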

hApoA-1 mRNA = assay: Up-regulation of hApoA-1 mRNA transcription in Huh7 cells; assay type: cell-based, human; design: key: Active: Compounds with an EC170 value less than 30 μM are deemed to be active.; Not Active: Compounds with an EC170 value less than 30 μM are deemed to be active; conditions: 48 hrs treatment, ApoA-I mRNA
Procedure: In this example, ApoA-I mRNA in tissue culture cells was quantitated to measure the transcriptional up-regulation of ApoA-I when treated with a compound of the present disclosure.
Huh7 cells ([…] per well) were plated in a 96-well plate using 100 μL DMEM per well, (Gibco DMEM supplemented with penicillin/streptomycin and 10% FBS), 24 h before the addition of the compound of interest. After 48 hrs treatment, the spent media was removed from the Huh-7 cells and placed on ice (for immediate use) or at −80° C. (for future use) with the “LDH cytotoxicity assay Kit II” from Abcam. The cells remaining in the plate were rinsed with 100 μL PBS.
Then 85 μL of cell lysis solution was added to each well and incubated for 5-10 minutes at room temperature, to allow for complete cell lysis and detachment. mRNA was then prepared using the “mRNA Catcher PLUS plate” from Life Technologies, according to the protocol supplied. After the last wash, as much wash buffer as possible was aspirated without allowing the wells to dry. Elution Buffer (E3, 80 μL) was then added to each well. mRNA was then eluted by incubating the mRNA Catcher PLUS plate with Elution Buffer for 5 minutes at 68° C., and then 1 minute at 4° C. Catcher plates with mRNA eluted were kept on ice for use or stored at −80° C.
The eluted mRNA isolated was then used in a one-step real-time PCR reaction, using components of the Ultra Sense Kit together with Life Technologies primer-probe mixes. Real-time PCR data was analyzed, using the Ct values, to determine the fold induction of each unknown sample, relative to the control (that is, relative to the control for each independent DMSO concentration).
Compounds with an EC170 value less than 30 μM are deemed to be active.

Brd4 bromodomain 1 = biological target: T1, Brd4 bromodomain 1 (Homo sapiens, UniProt O60885); assay: Inhibition of tetra-acetylated histone H4 binding to BET bromodomains (TR-FRET); design: key: Active: Compounds with an IC50 value less than 30 μM were deemed to be active.; Not Active: Compounds with an IC50 value less than 30 μM were deemed to be active; conditions: first bromodomain of Brd4, tetra-acetylated histone H4 peptide
T1 construct: made in house; host or cells: E. coli BL21(DE3)
Procedure, shortened: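 TR-FRET with N-terminally His-tagged bromodomains (200 nM, E. coli-expressed, Ni affinity and SEC-purified) and biotinylated tetra-acetylated histone H4 peptide (25–50 nM), detected with Eu-cryptate streptavidin and XL665 anti-His antibody. Buffer 30 mM HEPES pH 7.4, 320 mM KF, 0.08% BSA, 0.2% DMSO; 2 h RT. IC50 from decrease in 665/620 nm ratio.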

Human AML MV-4-11 cells = assay: Inhibition of cell proliferation in cancer cell lines (CellTiter Aqueous One); assay type: cell-based; design: key: Active: Compounds with an IC50 value less than 30 μM were deemed to be active.; Not Active: Compounds with an IC50 value less than 30 μM were deemed to be active; conditions: 72 hours
Procedure, shortened: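 Exponentially growing MV-4-11 cells were treated immediately with two-fold compound dilutions from 30 µM to 0.2 µM in triplicate for 72 h at 37 °C. Viability was read by MTS (CellTiter Aqueous One) absorbance at 490 nm after 3-4 h; % proliferation vs DMSO gave IC50.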

hIL-6 mRNA = assay: Inhibition of hIL-6 mRNA transcription in LPS-stimulated U937 macrophages; assay type: cell-based, human; design: key: Active: Compounds with an IC50 value less than 30 μM are deemed to be active; conditions: U937 differentiated into macrophages, 1 h pretreatment, lipopolysaccharide 3 h
Procedure, shortened: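 U937 cells differentiated 3 days with 60 ng/mL PMA, pretreated 1 h with compound, then stimulated with […] E. coli LPS for 3 h at 37° C. hIL-6 mRNA quantified by one-step real-time RT-PCR, Ct normalised to internal control and expressed as fold induction relative to control.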

Row | SMILES | c-myc activity (IC50 < 30 μM) (c-myc) | ApoA-1 Activity (EC170 < 30 μM) (hApoA-1 mRNA) | FRET activity (IC50 < 30 μM) (Brd4 bromodomain 1) | cell proliferation activity (IC50 < 30 μM) (Human AML MV-4-11 cells) | IL-6 activity (IC50 < 30 μM) (hIL-6 mRNA) | melting point
1 | COc1cc(OC)c2c(=O)[nH]c(-c3ccc(OCCNC(C)C)c(-c4ccc(C(=O)N(C)C)cc4C)n3)nc2c1 [Example 4, 4-(6-(5,7-dimethoxy-4-oxo-3,4-dihydroquinazolin-2-yl)-3-(2-(isopropylamino)ethoxy)pyridin-2-yl)-N,N,3-trimethylbenzamide] | Active | Active | Active | Active | Active | 
2 | COc1cc(OC)c2c(=O)[nH]c(-c3ccc(OCCO)c(-c4ccc(C(=O)N(C)C)cc4Cl)n3)nc2c1 [Example 5, 3-Chloro-4-(6-(5,7-dimethoxy-4-oxo-3,4-dihydroquinazolin-2-yl)-3-(2-hydroxyethoxy)pyridin-2-yl)-N,N-dimethylbenzamide] | Active | Active | Active | Active | Active | 
3 | COc1cc(OC)c2c(=O)[nH]c(-c3ccc(OCCNC(C)C)c(-c4ccc(C(=O)N(C)C)cc4Cl)n3)nc2c1 [Example 6, 3-Chloro-4-(6-(5,7-dimethoxy-4-oxo-3,4-dihydroquinazolin-2-yl)-3-(2-(isopropylamino)ethoxy)pyridin-2-yl)-N,N-dimethylbenzamide] | Active | Active | Active | Active | Active | 
4 | COc1cc(F)cc2nc(-c3ccc(OC4CN(C)C4)c(-c4ccc([S+](C)[O-])cc4)c3)[nH]c(=O)c12 (stereo not drawn) [Example 15, 7-Fluoro-5-methoxy-2-(6-((1-methylazetidin-3-yl)oxy)-4′-(methylsulfinyl)-[1,1′-biphenyl]-3-yl)quinazolin-4(3H)-one] | Active | Active | Active | Not Active | Active | 
5 | COc1cc(OC)c2c(=O)[nH]c(-c3ccc(OCCNC(C)C)c(-c4ccc([S+](C)[O-])cc4)c3)nc2c1 (stereo not drawn) [Example 17, 2-(6-(2-(Isopropylamino)ethoxy)-4′-(methylsulfinyl)biphenyl-3-yl)-5,7-dimethoxyquinazolin-4(3H)-one] | Active | Active | Active | Active | Active | 
6 | COc1cc(OC)c2c(=O)[nH]c(-c3ccc(OC4CNC4)c(-c4ccc(C#N)cc4)c3)nc2c1 [Example 18, 2′-(Azetidin-3-yloxy)-5′-(5,7-dimethoxy-4-oxo-3,4-dihydroquinazolin-2-yl)-[1,1′-biphenyl]-4-carbonitrile] | Active | Active | Active | Not Active | Active | 
7 | COc1cc(OC)c2c(=O)[nH]c(-c3ccc(OC4CN(C)C4)c(-c4ccc(C#N)cc4)c3)nc2c1 [Example 19, 5′-(5,7-Dimethoxy-4-oxo-3,4-dihydroquinazolin-2-yl)-2′-((1-methylazetidin-3-yl)oxy)-[1,1′-biphenyl]-4-carbonitrile] | Active | Active | Active | Not Active | Active | 
8 | COc1cc(OC)c2c(=O)[nH]c(-c3cccc(-c4ccc(C(=O)N(C)C)cc4)n3)nc2c1 [Example 20, 4-(6-(5,7-Dimethoxy-4-oxo-3,4-dihydroquinazolin-2-yl)pyridin-2-yl)-N,N-dimethylbenzamide] | Active | Active | Active | Not Active | Active | 217 to 219 °C
9 | COc1cc(OC)c2c(=O)[nH]c(-c3ccc(OCCO)c(-c4ccc(C(=O)N(C)C)cc4)n3)nc2c1 [Example 23, 4-(6-(5,7-Dimethoxy-4-oxo-3,4-dihydroquinazolin-2-yl)-3-(2-hydroxyethoxy)pyridin-2-yl)-N,N-dimethylbenzamide] | Active | Active | Active | Not Active | Active | 
10 | COc1cc(OC)c2c(=O)[nH]c(-c3ccc(OCCO)c(-c4ccc(S(C)(=O)=O)cc4)n3)nc2c1 [Example 24, 2-(5-(2-Hydroxyethoxy)-6-(4-(methylsulfonyl)phenyl)pyridin-2-yl)-5,7-dimethoxyquinazolin-4(3H)-one] | Not Active | Active | Active | Not Active | Active | > 300 °C
11 | COc1cc(OC)c2c(=O)[nH]c(-c3ccc(OCCO)c(-c4ccc(S(C)(=O)=O)cc4C)n3)nc2c1 [Example 39, 2-(5-(2-Hydroxyethoxy)-6-(2-methyl-4-(methylsulfonyl)phenyl)pyridin-2-yl)-5,7-dimethoxyquinazolin-4(3H)-one] | Active | Active | Active | Active | Active | 
12 | CCS(=O)(=O)c1ccc(-c2nc(-c3nc4cc(OC)cc(OC)c4c(=O)[nH]3)ccc2OCCN2CCCC2)cc1 [Example 42, 2-(6-(4-(Ethylsulfonyl)phenyl)-5-(2-(pyrrolidin-1-yl)ethoxy)pyridin-2-yl)-5,7-dimethoxyquinazolin-4(3H)-one] | Active | Not Active | Active | Active | Active | 
13 | CCS(=O)(=O)c1ccc(-c2nc(-c3nc4cc(OC)cc(OC)c4c(=O)[nH]3)ccc2OCCN2CCOCC2)cc1 [Example 43, 2-(6-(4-(Ethylsulfonyl)phenyl)-5-(2-morpholinoethoxy)pyridin-2-yl)-5,7-dimethoxyquinazolin-4(3H)-one] | Active | Active | Active | Active | Active | 
14 | COc1cc(OC)c2c(=O)[nH]c(-c3ccc(OCCNC(C)C)c(-c4ccc(S(C)(=O)=O)cc4)c3)nc2c1 [Example 44, 2-(6-(2-(Isopropylamino)ethoxy)-4′-(methylsulfonyl)-[1,1′-biphenyl]-3-yl)-5,7-dimethoxyquinazolin-4(3H)-one] | Active | Active | Active | Active | Active | 
